# From PubChem BioAssay AID743369
# The source made the active and inactive calls. No rule for the calls is given here.
# Target: Acetylcholine-binding protein (Lymnaea stagnalis) (UniProt P58154)
# Experiment: acetylcholine-binding protein ligand affinity – biochemical, Lymnaea stagnalis, His-tagged, [125I]alpha-bungarotoxin (AID 743369)
# Settings: Purified AChBP, [125I]-alpha-bungarotoxin displacement, filtration
# Acetylcholine-binding protein (Lymnaea stagnalis), sequence (P58154 whole entry, looked up): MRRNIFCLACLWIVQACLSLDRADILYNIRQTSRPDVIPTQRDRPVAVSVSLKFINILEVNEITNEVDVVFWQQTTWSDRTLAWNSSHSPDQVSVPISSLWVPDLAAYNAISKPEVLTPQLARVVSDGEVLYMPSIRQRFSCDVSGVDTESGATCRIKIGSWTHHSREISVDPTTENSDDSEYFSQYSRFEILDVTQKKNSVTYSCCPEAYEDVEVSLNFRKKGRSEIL
row,SMILES,Ki
1,NC1=N/C(=C2/CCNC(=O)c3[nH]ccc32)C(=O)N1,inactive
2,CC/C=C/[C@@H]1CC[C@]2(C[C@H]3CC[C@H]4[C@@H](C(=O)OC(CC)CCCCCCCCCCCCC[C@@H]5O[C@](O)(CCN)[C@H](O)N(CCCN)C5=O)[C@@]5(CCC[C@H](C)O5)NC(=[N+]34)N2)O1 (stereo partly specified),2500 nM
3,C[C@@H](N)[C@H](O)CCCCCCCC(=O)CCCCCCCCCCCCCC[C@@H](O[C@@H]1O[C@H](CO)[C@H](O)[C@H](O)[C@H]1O)[C@@H](C)N,28000 nM
4,COc1cc2c3c(ccnc3c1OC)NC=C2,3000 nM
5,COn1c(Br)c2c3c(cccc31)[C@H]1C[C@@H](C)CN(C)[C@@H]1C2,830 nM
6,COc1cc(CCN)c2c(c1OC)SSSSS2,790 nM
